# Earlier results in patent US5089474A, “Novel microproteins” (Roussel Uclaf, priority 1989, dated 1992).
# Tested on: trypsin
# Settings: statement in words on the known EETI II; cited from earlier work
substance,measurement,value
EETI II,property of inhibiting trypsin,inhibiting trypsin
